Legend:
Format in all cases: biochemical
Btk = biological target: T1, Btk (Homo sapiens, UniProt Q06187); assay: Btk in vitro inhibitory activity (one of Method A TR-FRET, Method B electrophoretic mobility shift, Method C radiometric filter binding); details: wild-type Btk; read-out: Btk-WT IC50
T1 construct: purified from insect cells as a full-length construct containing a N-terminal 6X-His tag; His6 (N); made in house; host or cells: insect cells (Method C)
Procedure, shortened: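 Method A: TR-FRET with 0.5 nM Btk at [ATP]=Km, EDTA-quenched, 665/615 nm ratio; Ki(app) converted to IC50. Method B: 1 nM full-length His6 human BTK, 1 μM FAM peptide, pH 7.5, mobility-shift product/sum ratio, 12-point 4-parameter fit. Method C: radiometric filter binding, 8 nM His-tagged BTK, 0.2 mg/mL poly-Glu-Tyr.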

TEC = biological target: T2, TEC (Homo sapiens, UniProt P42680); assay: Inhibition of a panel of kinases (in vitro HotSpot kinase assay, 33P-ATP, 1 μM ATP); details: for IC50: HotSpot kinase assay, 1 μM ATP; for TEC/Btk: ratio of TEC IC50 to Btk IC50 (selectivity)
T2 sequence (P42680 1-631): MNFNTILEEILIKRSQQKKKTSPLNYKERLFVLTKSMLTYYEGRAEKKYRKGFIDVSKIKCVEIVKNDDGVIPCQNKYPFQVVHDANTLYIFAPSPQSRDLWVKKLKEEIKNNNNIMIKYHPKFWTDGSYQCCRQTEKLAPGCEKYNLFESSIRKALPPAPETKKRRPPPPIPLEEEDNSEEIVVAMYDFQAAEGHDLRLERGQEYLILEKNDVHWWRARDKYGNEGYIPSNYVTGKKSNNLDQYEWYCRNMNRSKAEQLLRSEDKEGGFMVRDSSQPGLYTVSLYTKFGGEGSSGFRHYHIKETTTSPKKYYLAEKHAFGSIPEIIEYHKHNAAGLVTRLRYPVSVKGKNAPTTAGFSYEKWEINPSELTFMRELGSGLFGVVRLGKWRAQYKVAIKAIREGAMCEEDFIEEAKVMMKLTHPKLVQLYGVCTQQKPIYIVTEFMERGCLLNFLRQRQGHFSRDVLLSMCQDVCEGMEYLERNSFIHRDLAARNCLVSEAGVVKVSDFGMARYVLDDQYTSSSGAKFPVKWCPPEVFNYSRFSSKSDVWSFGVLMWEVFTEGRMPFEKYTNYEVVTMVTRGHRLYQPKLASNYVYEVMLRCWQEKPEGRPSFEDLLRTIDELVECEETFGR
Procedure, shortened: (§1)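 Degree of kinase inhibition is determined in vitro using isolated enzymes, a matched substrate and radiolabelled ATP (1 μM).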

panel of kinases = biological target: T3, panel of kinases (Homo sapiens, UniProt P51813); assay: Inhibition of a panel of kinases (in vitro HotSpot kinase assay, 33P-ATP, 1 μM ATP), other kinases; details: BMX wild-type, read-out: BMX-WT IC50
T3 sequence (P51813 1-675): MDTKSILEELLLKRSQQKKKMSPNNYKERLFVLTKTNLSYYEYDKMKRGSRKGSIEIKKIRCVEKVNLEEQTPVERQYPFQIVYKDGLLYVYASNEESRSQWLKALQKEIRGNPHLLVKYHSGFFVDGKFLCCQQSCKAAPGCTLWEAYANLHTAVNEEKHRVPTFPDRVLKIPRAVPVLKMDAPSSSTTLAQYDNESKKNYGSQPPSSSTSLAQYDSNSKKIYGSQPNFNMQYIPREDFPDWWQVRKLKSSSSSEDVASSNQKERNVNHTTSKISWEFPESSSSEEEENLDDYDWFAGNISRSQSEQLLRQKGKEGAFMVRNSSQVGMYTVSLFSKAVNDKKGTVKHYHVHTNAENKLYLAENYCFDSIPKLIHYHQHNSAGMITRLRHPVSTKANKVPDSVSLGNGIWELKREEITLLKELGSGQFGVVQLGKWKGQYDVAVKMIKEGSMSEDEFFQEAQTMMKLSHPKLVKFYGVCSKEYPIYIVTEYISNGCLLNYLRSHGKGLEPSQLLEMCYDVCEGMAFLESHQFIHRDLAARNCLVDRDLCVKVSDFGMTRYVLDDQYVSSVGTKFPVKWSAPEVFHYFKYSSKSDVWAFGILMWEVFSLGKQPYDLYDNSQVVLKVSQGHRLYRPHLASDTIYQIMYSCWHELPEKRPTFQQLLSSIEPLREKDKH
Procedure, shortened: as §1

T1 sequence (Q06187 whole entry): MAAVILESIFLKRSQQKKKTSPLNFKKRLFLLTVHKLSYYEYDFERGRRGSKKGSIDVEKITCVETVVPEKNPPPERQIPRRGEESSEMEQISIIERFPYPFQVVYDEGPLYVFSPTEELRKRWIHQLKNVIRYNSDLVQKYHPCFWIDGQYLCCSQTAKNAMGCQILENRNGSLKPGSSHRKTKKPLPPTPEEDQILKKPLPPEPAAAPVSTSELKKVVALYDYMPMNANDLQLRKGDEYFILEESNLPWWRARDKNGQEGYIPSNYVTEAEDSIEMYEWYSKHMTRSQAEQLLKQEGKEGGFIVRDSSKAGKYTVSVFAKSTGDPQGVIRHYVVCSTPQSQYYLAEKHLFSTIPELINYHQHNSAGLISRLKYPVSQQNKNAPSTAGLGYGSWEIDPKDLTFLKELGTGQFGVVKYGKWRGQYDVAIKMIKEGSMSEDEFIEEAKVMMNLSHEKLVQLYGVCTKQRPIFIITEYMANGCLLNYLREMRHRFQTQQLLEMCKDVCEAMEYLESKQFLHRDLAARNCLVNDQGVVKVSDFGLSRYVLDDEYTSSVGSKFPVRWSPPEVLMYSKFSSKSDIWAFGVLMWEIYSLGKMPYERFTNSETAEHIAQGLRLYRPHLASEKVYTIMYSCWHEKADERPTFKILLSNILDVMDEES

| SMILES | IC50 (Btk) [nM] | IC50 (TEC) [nM] | TEC/Btk (TEC) | IC50 (panel of kinases) [nM] |
| --- | --- | --- | --- | --- |
| C=CC(=O)N1CCC(Cc2n[nH]c3nccc(-c4ccc(CNC(=O)c5noc(C(C)(C)C)n5)c(F)c4)c23)C1 (centres unmarked) [Example 275, 5-tert-butyl-N-{[2-fluoro-4-(3-{[1-(prop-2-enoyl)pyrrolidin-3-yl]methyl}-1H-pyrazolo[3,4-b]pyridin-4-yl)phenyl]methyl}-1,2,4-oxadiazole-3-carboxamide] | 0.559 | 338 | 605 | 158 |
| C=CC(=O)N1CCC(c2n[nH]c3nccc(-c4ccc(CNC(=O)c5noc(C(C)(C)C)n5)c(F)c4)c23)C1 (centres unmarked) [Example 279, 5-tert-butyl-N-[(2-fluoro-4-{3-[1-(prop-2-enoyl)pyrrolidin-3-yl]-1H-pyrazolo[3,4-b]pyridin-4-yl}phenyl)methyl]-1,2,4-oxadiazole-3-carboxamide] | 0.0922 | 14.9 | 162 | 8.95 |
| CC(C)(C)c1nc(C(=O)NCc2ccc(-c3ccnc4[nH]nc(C5=CCNC5)c34)cc2F)no1 [Example 280, 5-tert-butyl-N-({4-[3-(2,5-dihydro-1H-pyrrol-3-yl)-1H-pyrazolo[3,4-b]pyridin-4-yl]-2-fluorophenyl}methyl)-1,2,4-oxadiazole-3-carboxamide] | 8.84 | 2150 | 243 | 1720 |
| C=CC(=O)N1CC=C(c2n[nH]c3nccc(-c4ccc(CNC(=O)c5noc(C(C)(C)C)n5)c(F)c4)c23)C1 [Example 281, 5-tert-butyl-N-[(2-fluoro-4-{3-[1-(prop-2-enoyl)-2,5-dihydro-1H-pyrrol-3-yl]-1H-pyrazolo[3,4-b]pyridin-4-yl}phenyl)methyl]-1,2,4-oxadiazole-3-carboxamide] | 0.0568 | 4.92 | 87 | 2.98 |
| CN(C)C(=O)N1CC[C@@H](Oc2n[nH]c3nccc(-c4ccc(CNC(=O)c5noc(C(C)(C)C)n5)c(F)c4)c23)C1 [Example 282, 5-tert-butyl-N-{[4-(3-{[(3R)-1-(dimethylcarbamoyl)pyrroli-din-3-yl]oxy}-1H-pyrazolo[3,4-b]pyridin-4-yl)-2-fluorophenyl]methyl}-1,2,4-oxadiazole-3-carboxamide] | 10.4 | 5240 | 504 | 6080 |
| CC(C)(C)c1noc(C(=O)NCc2ccc(-c3ccnc4[nH]nc(OC5CCNC5)c34)cc2F)n1 (centres unmarked) [Example 283, 3-tert-butyl-N-[(2-fluoro-4-{3-[(pyrrolidin-3-yl)oxy]-1H-pyrazolo[3,4-b]pyridin-4-yl}phenyl)methyl]-1,2,4-oxadiazole-5-carboxamide] | 10.9 | 7160 | – | 2970 |
| CC(=O)N1CC[C@H](Oc2n[nH]c3nccc(-c4ccc(CNC(=O)c5nc(C(C)(C)C)no5)c(F)c4)c23)C1 [Example 284, (S)-N-[(4-{3-[(1-acetylpyrrolidin-3-yl)oxy]-1H-pyrazolo[3,4-b]pyridin-4-yl}-2-fluorophenyl)methyl]-3-tert-butyl-1,2,4-oxadiazole-5-carboxamide] | 3.19 | 2250 | – | 2920 |
| C=CC(=O)N1CC[C@@H](Nc2n[nH]c3nccc(-c4ccnc(N5CCn6c(cc7c6CC(C)(C)C7)C5=O)c4C=O)c23)C1 [Example 286, (R)-2-(7,7-dimethyl-1-oxo-1,3,4,6,7,8-hexahydro-2H-cyclopenta[4,5]pyrrolo[1,2-a]pyrazin-2-yl)-4-(3-{[1-(prop-2-enoyl)pyrrolidin-3-yl]amino}-1H-pyrazolo[3,4-b]pyridin-4-yl)pyridine-3-carbaldehyde] | 482 | 1830 | – | 1510 |
| C=CC(=O)N1CCC[C@@H](Nc2n[nH]c3nccc(-c4ccc(CNC(=O)c5cc(CC(C)C)on5)c(F)c4)c23)[C@H]1C [Example 293, N-{[2-fluoro-4-(3-{[(2R,3R)-2-methyl-1-(prop-2-enoyl)piperidin-3-yl]amino}-1H-pyrazolo[3,4-b]pyridin-4-yl)phenyl]methyl}-5-(2-methylpropyl)-1,2-oxazole-3-carboxamide] | 1.76 | 59.4 | – | 46.1 |
| C=CC(=O)N1CC[C@@H](Nc2n[nH]c3nccc(-c4ccc(CNC(=O)c5cc(C(C)(C)O)on5)c(F)c4)c23)C1 [Example 294, N-{[2-fluoro-4-(3-{[(3R)-1-(prop-2-enoyl)pyrrolidin-3-yl]amino}-1H-pyrazolo[3,4-b]pyridin-4-yl)phenyl]methyl}-5-(2-hydroxypropan-2-yl)-1,2-oxazole-3-carboxamide] | 1.45 | 118 | – | 90 |
| C=CC(=O)N1CC[C@@H](Nc2n[nH]c3nccc(-c4ccc(CNC(=O)c5coc(C(C)(C)C)n5)c(F)c4)c23)C1 [Example 295, 2-tert-butyl-N-{[2-fluoro-4-(3-{[(3R)-1-(prop-2-enoyl)pyrrolidin-3-yl]amino}-1H-pyrazolo[3,4-b]pyridin-4-yl)phenyl]methyl}-1,3-oxazole-4-carboxamide] | 0.171 | 45.5 | – | 107 |
| CN(C)C(=O)N1CC[C@@H](Nc2n[nH]c3nccc(-c4ccc(CNC(=O)c5coc(C(C)(C)C)n5)c(F)c4)c23)C1 [Example 296, 2-tert-butyl-N-{[4-(3-{[(3R)-1-(dimethylcarbamoyl)pyrroli-din-3-yl]amino}-1H-pyrazolo[3,4-b]pyridin-4-yl)-2-fluorophenyl]methyl}-1,3-oxazole-4-carboxamide] | 8.97 | 1650 | – | 4690 |
| C=CC(=O)N1CC[C@@H](Nc2n[nH]c3nccc(-c4ccnc(N5CCn6c(cc7c6CC(C)(C)C7)C5=O)c4CO)c23)C1 [Example 298, 2-[3-(hydroxymethyl)-4-(3-{[(3R)-1-(prop-2-enoyl)pyrrolidin-3-yl]amino}-1H-pyrazolo[3,4-b]pyridin-4-yl)pyridin-2-yl]-7,7-dimethyl-3,4,7,8-tetrahydro-2H-cyclopenta[4,5]pyrrolo[1,2-a]pyrazin-1(6H)-one] | 1.51 | 3280 | – | 8030 |
| C=CC(=O)N1CC[C@@H](Nc2n[nH]c3nccc(-c4ccc([C@H](C)NC(=O)c5noc(C(C)(C)C)n5)c(F)c4)c23)C1 [Example 303, 5-tert-butyl-N-{(1S)-1-[2-fluoro-4-(3-{[(3R)-1-(prop-2-enoyl)pyrrolidin-3-yl]amino}-1H-pyrazolo[3,4-b]pyridin-4-yl)phenyl]ethyl}-1,2,4-oxadiazole-3-carboxamide] | 1.05 | 239 | – | 119 |
| C=CC(=O)N1CCC[C@@H](Nc2n[nH]c3nccc(-c4ccc(CNC(=O)c5cc(CC)on5)c(F)c4)c23)[C@H]1C [Example 304, 5-ethyl-N-{[2-fluoro-4-(3-{[(2R,3R)-2-methyl-1-(prop-2-enoyl)piperidin-3-yl]amino}-1H-pyrazolo[3,4-b]pyridin-4-yl)phenyl]methyl}-1,2-oxazole-3-carboxamide] | 0.908 | 15.9 | – | 4.59 |
| CC(C)(C)c1cc(C(=O)NCc2ccc(-c3ccnc4[nH]nc(N5CC[C@@H](N)C5)c34)cc2F)no1 [Example 307, (R)-N-({4-[3-(3-aminopyrrolidin-1-yl)-1H-pyrazolo[3,4-b]pyridin-4-yl]-2-fluorophenyl}methyl)-5-tert-butyl-1,2-oxazole-3-carboxamide] | 3.33 | 3210 | – | 1420 |

Reference: patent publication US20180194762A1 (Pharmacyclics LLC, priority 2017, published 2018)
